Test system: MDA-MB-231
Experiment: Cancer activity screen (MTT cell survival), MDA-MB-231
Type: cell-based
Conditions: Homo sapiens, second table

Row | Structure (SMILES) | IC50
1 | CCN1C(=O)/C(=C2\Sc3ccc(F)cc3N2C)S/C1=N\c1ccccc1 | 9.18 ± 1.04 µM
2 | COC(=O)CCn1c(=O)/c(=C2\Sc3cc(Cl)ccc3N2C)s/c1=C\c1ccccn1 | > 20 µM
3 | CCn1c(=O)/c(=C2\Sc3cc(OC(F)(F)F)ccc3N2C)s/c1=C\c1scc[n+]1Cc1ccc(C(F)(F)F)o1 | 0.51 ± 0.03 µM
4 | COC(=O)[C@@H](C)n1c(=O)/c(=C2\Sc3cc(F)ccc3N2C)s/c1=C\c1scc[n+]1Cc1ccccc1 | 1.2 ± 0.14 µM
5 | CCn1c(=O)/c(=C2\Sc3cc(F)ccc3N2C)s/c1=C\c1scc[n+]1Cc1ccccc1 | 0.15 ± 0.01 µM
6 | COC(=O)Cn1c(=O)/c(=C2\Sc3cc(F)ccc3N2C)s/c1=C\c1scc[n+]1Cc1ccccc1 | 2.9 ± 0.3 µM
7 | CCn1c(=O)/c(=C2\Sc3cc(Cl)ccc3N2C)s/c1=C\c1scc[n+]1Cc1ccccc1C(F)(F)F | 0.13 ± 0.01 µM
8 | CCn1c(=O)/c(=C2\Sc3cc(Cl)ccc3N2C)s/c1=C\c1scc[n+]1Cc1cccc(C(F)(F)F)c1 | 0.4 ± 0.04 µM
9 | CCn1c(=O)/c(=C2\Sc3cc(Cl)ccc3N2C)s/c1=C\c1scc[n+]1Cc1ccsc1C(=O)OC | 0.076 ± 0.01 µM
10 | CCn1c(=O)/c(=C2\Sc3cc(Cl)ccc3N2C)s/c1=C\c1scc[n+]1Cc1ccsc1Br | 0.2 ± 0.02 µM
11 | COC(=O)[C@@H](C)n1c(=O)/c(=C2\Sc3cc(F)ccc3N2C)s/c1=C\c1ccccn1 | > 20 µM
12 | CCn1c(=O)/c(=C2\Sc3cc(Cl)ccc3N2C)s/c1=C\c1scc[n+]1Cc1cc(C)on1 | 0.22 ± 0.02 µM
13 | COC(=O)Cn1c(=O)/c(=C2\Sc3cc(Cl)ccc3N2C)s/c1=C\c1scc[n+]1Cc1ccccc1 | > 20 µM
14 | COC(=O)Cn1c(=O)/c(=C2\Sc3cc(C(F)(F)F)ccc3N2C)s/c1=C\c1cccc[n+]1C | > 20 µM
15 | COC(=O)Cn1c(=O)/c(=C2\Sc3cc(C(F)(F)F)ccc3N2C)s/c1=C\c1scc[n+]1Cc1ccccc1 | 2.1 ± 0.4 µM
16 | CCn1c(=O)/c(=C2\Sc3ccc(Cl)cc3N2C)s/c1=C\c1nccs1 | 1.5 ± 0.3 µM
17 | CCn1c(=O)/c(=C2\Sc3ccc(Cl)cc3N2C)s/c1=C\c1scc[n+]1C | 3.1 ± 0.4 µM
18 | CCn1c(=O)/c(=C2\Sc3cc(C(F)(F)F)ccc3N2C)s/c1=C\c1scc[n+]1Cc1ccccc1 | 0.36 ± 0.03 µM
19 | CCn1c(=O)/c(=C2\Sc3cc(Cl)ccc3N2C)s/c1=C\c1scc[n+]1Cc1cc(-c2ccccc2)no1 | 0.17 ± 0.01 µM
20 | CCn1c(=O)/c(=C2\Sc3cc(Cl)ccc3N2C)s/c1=C\c1nccs1 | 2.3 ± 0.6 µM
21 | CCn1c(=O)/c(=C2\Sc3cc(C(F)(F)F)ccc3N2C)s/c1=C\c1scc[n+]1C | 8.5 ± 1 µM

Row | Structure (SMILES) | IC50
22 | CCn1c(=O)/c(=C2\Sc3c(ccc(F)c3F)N2C)s/c1=C\c1scc[n+]1C | 5.6 ± 0.6 µM
23 | CCn1c(=O)/c(=C2\Sc3cc(C(F)(F)F)ccc3N2C)s/c1=C\c1scc[n+]1CC | 4.2 ± 0.6 µM
24 | CCn1c(=O)/c(=C2\Sc3c(ccc(F)c3F)N2C)s/c1=C\c1scc[n+]1Cc1ccccc1 | 0.24 ± 0.01 µM
25 | CCn1c(=O)/c(=C2\Sc3cc(C(F)(F)F)ccc3N2C)s/c1=C\c1nccs1 | 2.6 ± 0.5 µM
26 | CCn1c(=O)/c(=C2\Sc3c(ccc(F)c3F)N2C)s/c1=C\c1nccs1 | 11.7 ± 2.3 µM
27 | CCn1c(=O)/c(=C2\Sc3cc(C(F)(F)F)ccc3N2C)s/c1=C\c1cccc[n+]1CC | 2.7 ± 0.6 µM
28 | CCn1c(=O)/c(=C2\Sc3ccc(Cl)cc3N2C)s/c1=C\c1cccc[n+]1Cc1ccccc1 | 0.34 ± 0.03 µM
29 | CCn1c(=O)/c(=C2\Sc3ccc(Cl)cc3N2C)s/c1=C\c1scc[n+]1Cc1ccc(C(F)(F)F)o1 | 0.3 ± 0.02 µM
30 | CCn1c(=O)/c(=C2\Sc3cc(Cl)ccc3N2C)s/c1=C\c1scc[n+]1Cc1cccnc1Br | 1.6 ± 0.2 µM
31 | CCn1c(=O)/c(=C2\Sc3cc(Cl)ccc3N2C)s/c1=C\c1scc[n+]1Cc1ccsc1 | 0.11 ± 0.01 µM
32 | CCOC(=O)c1ccc(C[n+]2ccsc2/C=c2\s/c(=C3/Sc4cc(Cl)ccc4N3C)c(=O)n2CC)o1 | 0.72 ± 0.08 µM
33 | CCn1c(=O)/c(=C2\Sc3cc(Cl)ccc3N2C)s/c1=C\c1scc[n+]1Cc1csc(C)n1 | 0.74 ± 0.07 µM
34 | CCn1c(=O)/c(=C2\Sc3cc(F)ccc3N2C)s/c1=C\c1scc[n+]1Cc1ccc(C(F)(F)F)o1 | 0.16 ± 0.03 µM
35 | CCn1c(=O)/c(=C2\Sc3cc(F)ccc3N2C)s/c1=C\c1scc[n+]1Cc1ccsc1C(=O)OC | 0.14 ± 0.02 µM
36 | CCn1c(=O)/c(=C2\Sc3ccc(Cl)cc3N2C)s/c1=C\c1scc[n+]1Cc1ccccc1C(F)(F)F | 0.25 ± 0.03 µM
37 | CCn1c(=O)/c(=C2\Sc3cc(F)ccc3N2C)s/c1=C\c1scc[n+]1Cc1ccccc1C(F)(F)F | 0.21 ± 0.03 µM
38 | CCn1c(=O)/c(=C2\Sc3cc(Cl)ccc3N2C)s/c1=C\c1scc[n+]1Cc1ccc(C(=O)OC)o1 | 0.97 ± 0.1 µM
39 | CCn1c(=O)/c(=C2\Sc3cc(F)ccc3N2C)s/c1=C\c1scc[n+]1Cc1ccc(C(=O)OC)o1 | 3.05 ± 0.42 µM
40 | CCn1c(=O)/c(=C2\Sc3cccc(C)c3N2C)s/c1=C\c1scc[n+]1Cc1ccccc1 | 0.21 ± 0.04 µM
41 | CCn1c(=O)/c(=C2\Sc3c(C)cccc3N2C)s/c1=C\c1scc[n+]1Cc1ccccc1 | 0.25 ± 0.03 µM
42 | CCn1c(=O)/c(=C2\Sc3ccc(Cl)cc3N2C)s/c1=C\c1scc[n+]1Cc1ccsc1C(=O)OC | 0.16 ± 0.02 µM

Row | Structure (SMILES) | IC50
43 | CCn1c(=O)/c(=C2\Sc3ccc(Cl)cc3N2C)s/c1=C\c1scc[n+]1Cc1ccsc1Br | 0.24 ± 0.03 µM
44 | CCn1c(=O)/c(=C2\Sc3ccc(Cl)cc3N2C)s/c1=C\c1scc[n+]1Cc1ccsc1 | 0.44 ± 0.05 µM
45 | CCn1c(=O)/c(=C2\Sc3ccc(Cl)cc3N2C)s/c1=C\c1scc[n+]1Cc1cc(-c2ccccc2)no1 | 0.5 ± 0.04 µM
46 | CCn1c(=O)/c(=C2\Sc3ccc(C)cc3N2C)s/c1=C\c1scc[n+]1Cc1ccccc1 | 0.078 ± 0.01 µM
47 | CCn1c(=O)/c(=C2\Sc3cc(C)ccc3N2C)s/c1=C\c1scc[n+]1Cc1ccccc1 | 0.041 ± 0.006 µM
48 | CCn1c(=O)/c(=C2\Sc3ccc(Cl)cc3N2C)s/c1=C\c1scc[n+]1Cc1cc(C)on1 | 1.05 ± 0.09 µM
49 | CCn1c(=O)/c(=C2\Sc3c(ccc(F)c3F)N2C)s/c1=C\c1scc[n+]1Cc1cc(C)on1 | 1.33 ± 0.11 µM
50 | CCn1c(=O)/c(=C2\Sc3c(ccc(F)c3F)N2C)s/c1=C\c1scc[n+]1Cc1ccsc1 | 0.81 ± 0.06 µM
51 | CN1/C(=c2\s/c(=C\c3scc[n+]3Cc3ccccc3C(F)(F)F)n(C)c2=O)Sc2c1ccc(F)c2F | 0.12 ± 0.009 µM
52 | CCn1c(=O)/c(=C2\Sc3c(ccc(F)c3F)N2C)s/c1=C\c1scc[n+]1Cc1ccc(C(F)(F)F)o1 | 0.51 ± 0.05 µM
53 | CCn1c(=O)/c(=C2\Sc3c(ccc(F)c3F)N2C)s/c1=C\c1scc[n+]1Cc1ccsc1Br | 0.48 ± 0.06 µM
54 | CCn1c(=O)/c(=C2\Sc3c(ccc(F)c3F)N2C)s/c1=C\c1cccc[n+]1Cc1ccc(C(F)(F)F)o1 | 0.92 ± 0.1 µM
55 | CCn1c(=O)/c(=C2\Sc3c(ccc(F)c3F)N2C)s/c1=C\c1cccc[n+]1Cc1ccccc1C(F)(F)F | 0.38 ± 0.07 µM
56 | CCn1c(=O)/c(=C2\Sc3c(ccc(F)c3F)N2C)s/c1=C\c1cccc[n+]1Cc1ccsc1Br | 0.92 ± 0.17 µM
57 | CCn1c(=O)/c(=C2\Sc3c(ccc(F)c3F)N2C)s/c1=C\c1cccc[n+]1Cc1ccsc1 | 2.09 ± 0.31 µM
58 | CCn1c(=O)/c(=C2\Sc3c(ccc(F)c3F)N2C)s/c1=C\c1cccc[n+]1Cc1cc(-c2ccccc2)no1 | 1.33 ± 0.2 µM
59 | CCn1c(=O)/c(=C2\Sc3c(ccc(F)c3F)N2C)s/c1=C\c1cccc[n+]1Cc1cc(C)on1 | 3.72 ± 0.41 µM
60 | CCn1c(=O)/c(=C2\Sc3c(ccc(F)c3F)N2C)s/c1=C\c1cccc[n+]1Cc1ccsc1C(=O)OC | 1.95 ± 0.27 µM
61 | CCn1c(=O)/c(=C2\Sc3c(ccc(F)c3F)N2C)s/c1=C\c1scc[n+]1Cc1ccsc1C(=O)OC | 0.21 ± 0.03 µM
62 | CN1/C(=c2\s/c(=C\c3scc[n+]3Cc3ccccc3)n(C3CC3)c2=O)Sc2cc(Cl)ccc21 | 0.56 ± 0.08 µM

— patent US9808448B2, “Pharmaceutical compounds and use of same in cancer and tauopathies” (THE REGENTS OF THE UNIVERSITY OF MICHIGAN, priority 2013, dated 2017)
